# Measured values from US20210261539A1, “COMPOUND HAVING BET INHIBITORY ACTIVITY AND PREPARATION METHOD AND USE THEREFOR” (Shanghai Haihe Pharmaceutical Co., Ltd., priority 2018, published 2021).
# Molecular target: T1, BRD4 BD1 (Homo sapiens, UniProt O60885)
# T1 construct: Protein BRD4 BD1 used in the assay was purchased from Active Motif (cat. 31380); purchased Active Motif 31380
# Test: HTRF in vitro enzyme activity assay, inhibition of BRD4 BD1 binding to acetylated H4 peptide
# Details: IC50 values of the compounds against BRD4 BD1 binding; class symbols A/B/C
# How it was run: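 Recombinant human BRD4 BD1 (30 nM final) incubated with compound and biotinylated tetra-acetylated H4(1-21) peptide, 30 min at 37 °C; 5-point 1:5 dilution series, 0.1% DMSO final. HTRF read after 3 h at RT with SA-XL665 and Eu(K)-labelled antibody; IC50 derived.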
row,Structure (SMILES),IC50 [nM]
1,"CC1C(=O)N(C)c2cnc(N3C(=O)c4ccccc4C3c3ccc(F)nc3)nc2N1C1CC1 (stereo not shown) [A99-P3/P4, 8-cyclopropyl-2-(1-(6-fluoropyridin-3-yl)-3-oxoisoindol-2-yl)-5,7-dimethyl-7,8-dihydropteridin-6(5H)-one]",≤ 10
2,"C[C@@H]1C(=O)N(C)c2cnc(N3C(=O)c4c(cccc4[S+](C)[O-])C3c3cccnc3)nc2N1C (stereo partly drawn) [A102-P2/P3, (7R)-5,7,8-trimethyl-2-(4-(methylsulfinyl)-3-oxo-1-(pyridin-3-yl)isoindolin-2-yl)-7,8-dihydropteridin-6(5H)-one]",≤ 10
3,"CC1C(=O)N(C)c2ccc(-n3c(=O)c4ccccc4n3-c3ccc(Cl)cc3)nc2N1C1COC1 (stereo not shown) [Example A26-P2, 6-(1-(4-chlorophenyl)-3-oxo-1,3-dihydro-2H-indazol-2-yl)-1,3-dimethyl-4-(oxetan-3-yl)-3,4-dihydropyrido [2,3-b]pyrazin-2(1H)-one]",≤ 10
4,"C[C@H]1Oc2nc(N3C(=O)c4ccccc4C3c3cccnc3)ccc2N(C)C1=O (stereo partly drawn) [Example A33-P1, (R)-1,3-dimethyl-6-(1-oxo-3-(pyridin-3-yl)isoindolin-2-yl)-1H-pyrido[2,3-B][1,3]oxazin-2(3H)-one]",≤ 10
5,"CC1Oc2nc(N3C(=O)c4ccccc4C3c3ccc(F)cc3)ccc2N(C)C1=O (stereo not shown) [Example A39-P1, 6-(1-(4-fluorophenyl)-3-oxoisoindolin-2-yl)-1,3-dimethyl-1H-pyrido[2,3-b][1,4]oxazin-2(3H)-one]",≤ 10
6,"C[C@H]1Oc2nc(N3C(=O)c4ccccc4C3c3ccc(Cl)cc3)ccc2N(C)C1=O (stereo partly drawn) [Example A40-P1, (3R)-6-(1-(4-chlorophenyl)-3-oxoisoindolin-2-yl)-1,3-dimethyl-1H-pyrido[2,3-B][1,4]oxazin-2(3H)-one]",≤ 10
7,"C[C@@H]1C(=O)N(C)c2ccc(N3C(=O)c4ccccc4C3c3ccccn3)nc2N1C (stereo partly drawn) [Example A42-P2, (3R)-1,3,4-trimethyl-6-(1-oxo-3-(pyridin-2-yl)isoindolin-2-yl)-3,4-dihydropyrido [2,3-b]pyrazin-2-(1H)-one]",≤ 10
8,"[2H]C([2H])([2H])N1C(=O)C(C)N(C2CC2)c2nc(N3C(=O)c4ccccc4C3c3cccnc3)ccc21 (stereo not shown) [Example A43-P4, 4-cyclopropyl-3-methyl-1-(trideuteromethyl)-6-(1-oxo-3-(pyridin-3-yl)isoindolin-2-yl)-3,4-dihydropyrido [2,3-B]pyrazin-2(1H)-one]",≤ 10
9,"CC1C(=O)N(C)c2cc(F)c(N3C(=O)c4ccccc4C3c3cccnc3)nc2N1C1CC1 (stereo not shown) [Example A44, 4-cyclopropyl-7-fluoro-1,3-dimethyl-6-(1-oxo-3-(pyridin-3-yl)isoindolin-2-yl)-3,4-dihydropyrido [2,3-b]pyrazin-2(1H)-one]",≤ 10
10,"CC1C(=O)N(CF)c2ccc(N3C(=O)c4ccccc4C3c3cccnc3)nc2N1C1CC1 (stereo not shown) [Example A45-P4, 4-cyclopropyl-1-(fluoromethyl)-3-methyl-6-(1-oxo-3-(pyridin-3-yl)isoindolin-2-yl)-3,4-dihydropyrido [2,3-b]pyrazin-2(1H)-one]",≤ 10
11,"CC1C(=O)N(CC(F)(F)F)c2ccc(N3C(=O)c4ccccc4C3c3cccnc3)nc2N1C1CC1 (stereo not shown) [Example A46-P4, 4-cyclopropyl-1-(2,2,2-trifluoroethyl)-3-methyl-6-(1-oxo-3-(pyridin-3-yl)isoindolin-2-yl)-3,4-dihydropyrido [2,3-b]pyrazin-2(1H)-one]",≤ 10
12,"C[C@@H]1C(=O)N(C)c2ccc(N3C(=O)c4ccccc4C3c3cccnc3)nc2N1C (stereo partly drawn) [Example A48-P4, (3R)-1,3,4-trimethyl-6-(1-oxo-3-(pyridin-3-yl)isoindolin-2-yl)-3,4-dihydropyrido [2,3-b]pyrazin-2-(1H)-one]",≤ 10
13,"CCN1C(=O)C(C)N(C2CC2)c2nc(N3C(=O)c4ccccc4C3c3cccnc3)ccc21 (stereo not shown) [Example A49-P4, 4-cyclopropyl-1-ethyl-3-methyl-6-(1-oxo-3-(pyridin-3-yl)isoindolin-2-yl)-3,4-dihydropyrido [2,3-b]pyrazin-2-(1H)-one]",≤ 10
14,"[2H]C([2H])([2H])N1C(=O)C(C)N(C2CC2)c2nc(N3C(=O)c4ccccc4C3c3ccc(F)cc3)ccc21 (stereo not shown) [Example A51-P3, 4-cyclopropyl-6-(1-(4-fluorophenyl)-3-oxoisoindolin-2-yl)-3-methyl-1-(trideuteromethyl)-3,4-dihydropyrido [2,3-B]pyrazin2(1 H)-one]",≤ 10
15,"CC1C(=O)N(CC(F)F)c2ccc(N3C(=O)c4ccccc4C3c3cccnc3)nc2N1C1CC1 (stereo not shown) [Example A53-P4, 4-cyclopropyl-1-(2,2-difluoroethyl)-3-methyl-6-(1-oxo-3-(pyridin-3-yl)isoindolin-2-yl)-3,4-dihydropyrido [2,3-b]pyrazin-2(1H)-one]",≤ 10
16,"CC1C(=O)N(C)c2ccc(N3C(=O)c4ccccc4C3c3ccccc3)nc2N1CC(F)(F)F (stereo not shown) [Example A56-P1, 1,3-dimethyl-6-(1-oxo-3-phenylisoindolin-2-yl)-4-(2,2,2-trifluoroethyl)-3,4-dihydropyrido [2,3-b]pyrazin-2(1H)-one]",≤ 10
17,CC(C)N1c2nc(N3C(=O)c4ccccc4C3c3cccnc3)ccc2N(C)C(=O)C1C (stereo not shown) [Example A57-P3],≤ 10
18,"CC1C(=O)N(C)c2ccc(N3C(=O)c4ccccc4C3c3ccncc3)nc2N1C1CC1 (stereo not shown) [Example A58-P1, 4-cyclopropyl-1,3-dimethyl-6-(1-oxo-3-(pyridin-4-yl)isoindolin-2-yl)-3,4-dihydropyrido[2,3-b]pyrazin-2(1H)-one]",≤ 10
19,"CC[S+]([O-])c1cccc2c1C(=O)N(c1ccc3c(n1)N(C1CC1)C(C)C(=O)N3C)C2c1cccnc1 (stereo not shown) [Example A73, 4-cyclopropyl-6-(4-(ethylsulfinyl)-3-oxo-1-(pyridin-3-yl)isoindolin-2-yl)-1,3-dimethyl-3,4-dihydropyrido[2,3-b]pyrazin-2(1H)-one]",≤ 10

# Next, values leading:
row,IC50 [nM],Structure (SMILES)
1,≤ 10,"CC1C(=O)N(C)c2ccc(N3C(=O)c4cc(C(=O)O)ccc4C3c3ccc(F)cc3)nc2N1C1CC1 (stereo not shown) [A77-P1/P4, 2-(4-cyclopropyl-1,3-dimethyl-2-oxo-1,2,3,4-tetrahydropyrido[2,3-b]pyrazin-6-yl)-1-(4-fluorophenyl)-3-oxoisoindoline-5-carboxylic acid]"
2,10 to 100,"CC1C(=O)N(C)c2ccc(N3C(=O)c4ccccc4C3(O)c3ccc(F)cc3)nc2N1C1CC1 (stereo not shown) [Compound A25, 4-cyclopropyl-6-(1-(4-fluorophenyl)-1-hydroxy-3-oxoisoindolin-2-yl)-1,3-dimethyl-3,4-dihydropyrido[2,3-b]pyrazin-2(1H)-one]"
3,≤ 10,"CC1C(=O)N(C)c2ccc(N3C(=O)CCC3c3ccc(Cl)cc3)nc2N1C1CC1 (stereo not shown) [Example A3-P3, 4-cyclopropyl-6-(2-(4-chlorophenyl)-5-oxopyrrolidin-1-yl)-1,3-dimethyl-3,4-dihydropyrido[2,3-b]pyrazin-2(1H)-one]"
4,≤ 10,"CC1C(=O)N(C)c2ccc(-n3c(=O)c4ccccc4n3-c3ccc(C#N)cc3)nc2N1C1CC1 (stereo not shown) [Example A27-P1, 6-(1-(4-cyanophenyl)-3-oxo-1,3-dihydro-2H-indazol-2-yl)-4-cyclopropyl-1,3-dimethyl-3,4-dihydropyrido [2,3-b]pyrazin-2(1H)-one]"
5,≤ 10,"CC1C(=O)N(C)c2cnc(-n3c(=O)c4ccccc4n3-c3ccc(Cl)cc3)cc2N1C1CC1 (stereo not shown) [Example A29-P4, 7-(1-(4-chlorophenyl)-3-oxo-1H-indazol-2(3H)-yl)-1-cyclopropyl-2,4-dimethyl-1,2-dihydropyrido [3 4-b]pyrazin-3(4H)-one]"
6,≤ 10,"CC1C(=O)N(C)c2ccc(N3C(=O)c4ccccc4C3c3ccc(Cl)cc3)nc2N1C1COC1 (stereo not shown) [Example A31-P3, 6-(1-(4-chlorophenyl)-3-oxoisoindolin-2-yl)-1,3-dimethyl-4-(oxacyclebutan-3-yl)-3,4-dihydropyrido [3,2-B]pyrazin-2(1H)-one]"
7,10 to 100,"CC1Oc2nc(-n3c(=O)c4ccccc4n3-c3ccc(Cl)cc3)ccc2N(C)C1=O (stereo not shown) [Example A32-P3, 6-(1-(4-chlorophenyl)-3-oxo-1,3-dihydro-2H-indazol-2-yl)-1,3-dimethyl-1H-pyrido[2,3-B][1,4]oxazin-2(3H)-one]"
8,≤ 10,"CC1C(=O)N(C)c2ccc(N3C(=O)c4ccccc4C3c3cccnc3)nc2N1C1CC1 (stereo not shown) [Example A36-P3, 4-cyclopropyl-1,3-dimethyl-6-(1-oxo-3-(pyridin-3-yl)isoindolin-2-yl)-3,4-dihydropyrido [3,2-b]pyrazin-2-(1H)-one]"
9,≤ 10,"CC1C(=O)N(C)c2ccc(N3C(=O)c4ccccc4C3c3cccnc3)nc2N1C1(C)CC1 (stereo not shown) [Example A47-P4, 1,3-dimethyl-4-(1-methylcyclopropyl)-6-(1-oxo-3-(pyridin-3-yl)isoindolin-2-yl)-3,4-dihydropyrido [2,3-b]pyrazin-2(1H)-one]"
10,≤ 10,"CC1C(=O)N(CCF)c2ccc(N3C(=O)c4ccccc4C3c3cccnc3)nc2N1C1CC1 (stereo not shown) [Example A52-P4, 4-cyclopropyl-1-(2-fluoroethyl)-3-methyl-6-(1-oxo-3-(pyridin-3-yl)isoindolin-2-yl)-3,4-dihydropyrido [2,3-b]pyrazin-2(1H)-one]"
11,≤ 10,"CC1C(=O)N(C)c2ccc(N3C(=O)c4ccccc4C3c3cccnc3)nc2N1C1COC1 (stereo not shown) [Example A54-P4, 1,3-dimethyl-4-(oxetan-3-yl)-6-(1-oxo-3-(pyridin-3-yl)isoindolin-2-yl)-3,4-dihydropyrido [2,3-b]pyrazin-2(1H)-one]"
12,≤ 10,"CC1C(=O)N(C)c2ccc(N3C(=O)c4ccccc4C3c3cccnc3)nc2N1CC(F)(F)F (stereo not shown) [Example A59-P2, 1,3-dimethyl-6-(1-oxo-3-(pyridin-3-yl)isoindolin-2-yl)-4-(2,2,2-trifluoroethyl)-3,4-dihydropyrido[2,3-b]pyrazin-2(1H)-one]"
